What was measured:
SH-SY5Y cells [1] = assay: AK (adenylate kinase) release ToxiLight cytotoxicity assay; conditions: PKIS2 primary screening; also: reference of the scale not given here
endogenous TFE3 = assay: TFE3 nuclear translocation, immunocytochemistry high-content imaging; type: cell-based; conditions: PKIS2 primary screening
SH-SY5Y cells [2] = conditions: PKIS2 primary screening; for DQ Intensity: DQ Red BSA intensity; for DQ Spot: DQ Red BSA spot count
From the text: The PKIS2 Library was supplied by The Structural Genomics Consortium at the University of North Carolina at Chapel Hill.

endogenous TFEB = assay: TFEB nuclear translocation, immunocytochemistry high-content imaging; type: cell-based; conditions: PKIS2 primary screening
SH-SY5Y cells [3] = assay: Nuclear count from microscopy images (cellular growth and toxicity); conditions: PKIS2 primary screening; also: reference of the scale not given here
For DQ Intensity in this document: reference of the scale not given here.
For DQ Spot in this document: reference of the scale not given here.

Structure (SMILES)	AK (SH-SY5Y cells [1])	TFE3 % (endogenous TFE3) [%]	DQ Intensity (SH-SY5Y cells [2])	DQ Spot (SH-SY5Y cells [2])	TFEB % (endogenous TFEB) [%]	Nuclear Count (SH-SY5Y cells [3])
COc1cc(Nc2nccc(N3CCC(NC(=O)C4COc5ccccc5O4)C3)n2)cc(OC)c1OC (stereo not drawn) [GSK1379761]	96.01	10.33	95.14	97.75	2.44	125.75
COc1cc(Nc2nccc(N3CCC(NC(=O)Nc4cc(C)ccc4C)C3)n2)cc(OC)c1OC (stereo not drawn) [GSK1379762]	74.55	14.40	110.39	96.86	7.03	111.04
COc1cccc(NC(=O)NC2CCN(c3ccnc(Nc4cc(OC)c(OC)c(OC)c4)n3)C2)c1 (stereo not drawn) [GSK1379763]	111.80	18.80	128.42	124.42	4.72	90.02
COc1cccc(CNC(=O)NC2CCN(c3ccnc(Nc4cc(OC)c(OC)c(OC)c4)n3)C2)c1 (stereo not drawn) [GSK1379765]	74.87	15.97	73.44	97.23	3.20	98.25
COc1cc(Nc2nccc(N3CCC(NC(=O)Nc4ccc5c(c4)OCO5)C3)n2)cc(OC)c1OC (stereo not drawn) [GSK1379766]	118.87	9.31	63.32	78.55	4.47	95.41
COC(=O)c1cccc(NC(=O)NC2CCN(c3ccnc(Nc4cc(OC)c(OC)c(OC)c4)n3)C2)c1 (stereo not drawn) [GSK1379767]	115.43	6.50	85.74	95.59	5.97	122.32
COc1ccc(CNC(=O)NC2CCN(c3ccnc(Nc4ccc(F)cc4)n3)CC2)cc1 [GSK1379788]	114.99	14.89	86.32	97.11	3.80	82.62
O=C(Nc1ccccc1F)NC1CCN(c2ccnc(Nc3ccc(F)cc3)n2)CC1 [GSK1379800]	198.42	9.18	95.32	97.06	6.86	118.12
COc1ccc(Nc2nccc(N3CCC(NC(=O)C(C)c4ccc(Cl)cc4)CC3)n2)cc1 (stereo not drawn) [GSK1379812]	91.65	16.53	134.37	89.99	5.92	97.15
COc1cc(Nc2nccc(N3CCC(NS(=O)(=O)c4ccc(NC(C)=O)cc4)CC3)n2)cc(OC)c1OC [GSK1379825]	75.82	12.08	96.24	89.82	12.82	107.84
O=C(Nc1ccc2c(c1)OCO2)NC1CCN(c2ccnc(NCc3ccc(F)cc3)n2)CC1 [GSK1379859]	102.69	12.41	77.50	79.61	6.05	98.68
COC(=O)c1cccc(NC(=O)NC2CCN(c3ccnc(NCc4ccc(F)cc4)n3)CC2)c1 [GSK1379860]	178.25	10.41	146.32	93.58	6.34	118.43
O=C(NCCNc1ccnc(Nc2ccc(F)cc2)n1)c1cc2ccccc2s1 [GSK1379874]	71.16	18.78	94.35	110.46	5.88	89.16
Cc1ccc(C)c(NC(=O)NCCNc2ccnc(Nc3ccc(F)cc3)n2)c1 [GSK1379878]	103.06	7.01	136.83	104.85	8.11	85.48
COc1cccc(NC(=O)NCCNc2ccnc(Nc3ccc(F)cc3)n2)c1 [GSK1379879]	80.56	16.07	127.01	112.84	4.69	93.19
O=C(NCCNc1ccnc(Nc2ccc(F)cc2)n1)Nc1ccccc1F [GSK1379880]	82.91	7.81	104.78	97.82	3.19	133.27
O=C(NCCNc1ccnc(Nc2ccc(F)cc2)n1)Nc1ccc2c(c1)OCO2 [GSK1379882]	105.11	17.40	52.40	79.77	4.46	67.71
COC(=O)c1cccc(NC(=O)NCCNc2ccnc(Nc3ccc(F)cc3)n2)c1 [GSK1379883]	105.04	3.78	102.62	95.44	8.27	115.63

Structure (SMILES)	AK (SH-SY5Y cells [1])	TFE3 % (endogenous TFE3) [%]	DQ Intensity (SH-SY5Y cells [2])	DQ Spot (SH-SY5Y cells [2])	TFEB % (endogenous TFEB) [%]	Nuclear Count (SH-SY5Y cells [3])
COc1ccc(Nc2nccc(NCCNC(=O)c3cc4ccccc4s3)n2)cc1 [GSK1379896]	100.12	17.76	100.56	107.99	5.04	88.87
COc1ccc(Nc2nccc(NCCNC(=O)Nc3cc(C)ccc3C)n2)cc1 [GSK1379899]	79.47	15.31	123.56	108.96	7.12	88.82
COc1ccc(Nc2nccc(NCCNC(=O)Nc3ccccc3F)n2)cc1 [GSK1379901]	100.88	12.56	112.97	125.52	13.61	49.37
O=C(NCCNc1ccnc(NCc2ccc(F)cc2)n1)c1cc2ccccc2s1 [GSK1379944]	378.86	12.27	122.34	117.48	8.85	79.28
Cc1cc(-c2ccnc(Nc3cccc(C#N)c3)n2)cc(C)c1O [GSK1440913]	97.58	21.61	63.54	78.51	7.49	76.93
CNC(=O)c1ccccc1Nc1nc(Nc2cccc(CS(C)(=O)=O)c2)ncc1C [GSK1520489]	149.13	10.71	192.20	118.45	10.40	38.33
COc1ccc(Nc2ncc(C#N)c(Nc3ccccc3C(N)=O)n2)cc1N1CCN(C)CC1 [GSK1558669]	96.14	11.88	142.11	120.07	5.16	62.25
CNC(=O)c1ccccc1Nc1nc(Nc2ccc(N3CCOCC3)cc2)ncc1Cl [GSK1576028]	149.21	5.85	165.31	111.32	42.50	15.51
Cc1cc(N2CCC(NS(=O)(=O)c3ccc(F)cc3)CC2)nc(Nc2cccc(C#N)c2)n1 [GSK1653537]	183.29	18.21	104.60	98.84	10.28	84.44
COc1ccc(S(=O)(=O)NC2CCN(c3cc(C)nc(Nc4cccc(C#N)c4)n3)CC2)cc1 [GSK1653539]	67.09	12.26	59.46	82.66	5.30	97.37
Cc1cc(N2Cc3ccccc3C2)nc(Nc2ccc(S(=O)(=O)N3CCOCC3)cc2)n1 [GSK1669917]	117.66	8.23	64.14	76.32	1.55	138.98
N#Cc1ccc(CCNc2nccc(-c3cccc(CN4CCNCC4)c3)n2)cc1 [GSK2137462]	187.39	23.49	97.76	74.26	6.80	74.38
Nc1n[nH]c2cc(-c3ccccn3)ccc12 [GSK2189892]	114.93	11.18	114.80	107.54	8.33	100.38
Nc1cccc(-c2ccc3c(N)n[nH]c3c2)n1 [GSK2192730]	126.21	14.87	80.06	98.33	5.46	95.98
Nc1cccc(-c2ccc3c(N)n[nH]c3c2)c1 [GSK2193613]	94.13	9.08	55.67	76.28	4.96	112.12
CNc1nccc(-c2ccc3c(N)n[nH]c3c2)n1 [GSK2206003]	89.67	14.62	68.32	96.17	3.51	71.44
CN(C)c1cc(-c2ccc3c(N)n[nH]c3c2)nc(N)n1 [GSK2219329]	83.85	13.03	87.81	98.17	4.04	85.79

— paper PMC9851200, “Multiparameter phenotypic screening for endogenous TFEB and TFE3 translocation identifies novel chemical series modulating lysosome function” (Autophagy, 2022)
